“Also recorded” adds a separate entry of the source.
Tested on: HCT116 xenografts
Test: growth inhibition of HCT116 xenografts
Type: in vivo, mice
Settings: for #Tumor Free (day) / % Max T/C / Log10 Tumor Cell Kill: HCT116 (colon)
Experimental: Details of the preparation of murine models containing xenografts of HCT116 cells or PC-3 cells are described in the section following these examples. After the tumors were grown, therapy utilizing Compound J or paclitaxel was initiated. […] In FIG. 4A, the *'s represent control mice, the squares represent 5 mg/kg Compound J; the diamonds represent 20 mg/kg Compound J; and the slanted line represents 20 mg/kg paclitaxel.
The details of the protocol for Examples 19 and 20 are as follows:
• PC3 prostrate tumor cells and HCT116 colon tumor cells (acquired from the tumor repository Division of Cancer Treatment and Diagnosis (DCTD) of the NCI • Complete RPMI Media • RPMI (Cat# 11875-085, Invitrogen) • 10% Heat-inactivated (30′ 56° C.) Fetal Bovine Serum (Cat# 100-106, Gemini Bio-Products • 2 mM L-glutamine (Cat# 25030-081, Invitrogen) • 0.1 mM MEM Non-Essential Amino Acids Solution (Cat#11140-050, Invitrogen) • 10 U/ml Penicillin/10 μg/ml Streptomycin (Cat#15140-122, Invitrogen) • 1 mM Sodium Pyruvate (Cat#l 1360-070) • Trypsin-EDTA (Cat#25300-054, Invitrogen) • Ca^2+/Mg^2+-free Phosphate Buffered Saline, 5% dextrose in water • Cell Culture Dish 150 mm×25 mm (Cat# 430599, Coming, Inc.) • 10 and 25 ml pipets, standard pipet-aid, p200 and p1000 pipette tips and standard pipetmen • Athymic NCr-nu/nu nude mice at 6-12 weeks of age, either sex (Strain code: 01B74, NCI Frederick Animal Production Program—suppliers include Charles River Labs and Taconic Farms). Female mice of approximately 7 weeks of age were utilized for existing experiments. • Standard 1 cc tuberculin syringe, 30G½ and 25G⅝ needles (Becton Dickinson) • Falcon 5 ml tubes (Cat#352054) • 50 and 15 ml disposable plastic conical tubes (Falcon or similar vendor) • Trypan Blue Solution (0.4%) (Cat#T8154, Sigma) • Hausser phase contrast hemacytometer (Cat# 02-671-54, Fisher) • Ice bucket • Balance for weighing mice (accurate to 0.2 g) • Vernier calipers • Vivarium facility free from known pathogens (nude mice should be housed in isolation from conventional mice if possible—separate rooms or micro-isolator cages equipped with individual air flow; all animal housing, bedding, water should be autoclaved prior to use; standard irradiated mouse chow should be used; animals should be changed out of cages within laminar flow hood; investigators handling mice should be suitably garbed—disposable gown, bonnet, booties, gloves, mask) • AB-5 (Compound J) compound • Ethyl alcohol, 200 proof (Aaper, MFD 041205) • Cremaphor (Cat# C5135, Sigma) • Paclitaxel (Cat#ANP0010, Polymed Therapeutics) Procedure: • 1) Rapidly thaw PC3 or HCT116 cells (if necessary) in 37° C. water bath. Transfer contents to 9ml complete RPMI media. Spin 5′ at 1200 rpm (240 Xg). Discard media and resuspend pellet in 8 ml complete RPMI media. Plate in 100 mm×25 mm cell culture dish in 5% CO2, 37° C. humidified incubator. • 2) Allow to grow for 5-10 days, splitting (aspirate media, wash with 3-5 ml PBS, add 1 ml trypsin-EDTA, incubate 3-5′ at 37° C., add media to desired volume and transfer to multiple plates) 1:8 to 1:10 every 3-4 days as necessary to allow cells to enter phase of logarithmic growth. • 3) When cells are growing well, begin to expand to 150 mm×25 mm dishes. We use 20 ml of media in a 150 mm dish and use 2 ml of trypsin for splitting. When nearly confluent, there should be 2×10^7 cells/150 mm dish. • 4) Plan ahead to time arrival of nu/nu mice such that they can acclimate to animal facility for 1 week prior to injection of tumor cells. […] Plan to inject 10 million cells/mouse and allow for loss of cells/volume during injection process. That is, if 30 mice are to be injected, plan to harvest cells sufficient for at least 35 injections—35×10 million cells=3.5×10^8 cells. In the existing HCT116 experiment, 7.5×10^6 cells were injected per mouse. Five mice per group were utilized for AB-5 treatment and four mice per group were utilized for the control and paclitaxel treatments. […]

| Structure (SMILES) | inhibition of growth of HCT116 xenografts (FIG. 4A, 20 mg/kg IV) | #Tumor Free (day) (5 mg/kg, IP) | % Max T/C (5 mg/kg, IP) | Log10 Tumor Cell Kill (5 mg/kg, IP) | #Tumor Free (day) (5 mg/kg, IV) | % Max T/C (5 mg/kg, IV) | Log10 Tumor Cell Kill (5 mg/kg, IV) | #Tumor Free (day) (20 mg/kg, IP) | % Max T/C (20 mg/kg, IP) | Log10 Tumor Cell Kill (20 mg/kg, IP) | % Max T/C (20 mg/kg, IV) | Log10 Tumor Cell Kill (20 mg/kg, IV) | animals free of tumors (free of tumors for over five months) | weight loss (tumor-free animals, over five months) |
| --- | --- | --- | --- | --- | --- | --- | --- | --- | --- | --- | --- | --- | --- | --- |
| CC(C)[C@H](O)C(=O)N[C@H]1Cc2ccc3c(c2)[C@]24C5=C(N=C(O5)[C@H](C(C)C)NC1=O)c1ncc(o1)-c1c[nH]c5cccc(c15)-c1cccc2c1NC4O3 (stereo in doubt) [Compound J] | comparable to paclitaxel; also recorded: slows tumor growth in a manner similar to paclitaxel | 0/5 | 41.9% | 0.37 | 0/5 | 26.5% | 0.54 | 0/5 | 9.3% | 1.0 | 0.2% | 1.8 | four of 10 | no weight loss |
| CC(=O)O[C@H]1C(=O)[C@@]2(C)[C@H]([C@H](OC(=O)c3ccccc3)[C@]3(O)C[C@H](OC(=O)[C@H](O)[C@@H](NC(=O)c4ccccc4)c4ccccc4)C(C)=C1C3(C)C)[C@]1(OC(C)=O)CO[C@@H]1C[C@@H]2O [paclitaxel, reference compound] | – | – | – | – | – | – | – | – | – | – | 0.2% | 3.2 | – | – |
